Experimental data: PubChem BioAssay AID248 (DTP/NCI, 2004)
Where “and” joins values, the source holds several entries; their conditions need not be identical. Equal values may be shown once. Inconclusive results and toxic doses are left out. No stated cut-off is given here; in the data, active means T/C of 150% or more; inactive means T/C below 125%.

System: L1210 leukemia ip in BDF1 mice, survival T/C
Test: NCI In Vivo Anticancer Drug Screen. Data for tumor model L1210 Leukemia (intraperitoneal) in B6D2F1 (BDF1) mice
Details: endpoint: mean survival time, higher = longer survival
Procedure, shortened: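 Read-out is survival time, reported as the treated-group measurement over the vehicle-control measurement.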

[1] = dose: 100.0 mg/kg/injection, schedule: Q04DX003 (ip), vehicle: saline with Tween-80
[2] = dose: 400.0 mg/kg/injection, schedule: Q04DX003 (ip), vehicle: saline with Tween-80
[3] = dose: 100.0 mg/kg/injection, schedule: Q01DX001 (ip), vehicle: saline
[4] = dose: 200.0 mg/kg/injection, schedule: Q01DX001 (ip), vehicle: saline
[5] = dose: 400.0 mg/kg/injection, schedule: Q01DX001 (ip), vehicle: saline
[6] = dose: 12.5 mg/kg/injection, schedule: Q01DX009 (ip), vehicle: Klucel (hydroxypropylcellulose) (HPC)
[7] = dose: 25.0 mg/kg/injection, schedule: Q01DX009 (ip), vehicle: Klucel (hydroxypropylcellulose) (HPC)
[8] = dose: 50.0 mg/kg/injection, schedule: Q01DX009 (ip), vehicle: Klucel (hydroxypropylcellulose) (HPC)
[9] = dose: 100.0 mg/kg/injection, schedule: Q04DX003 (ip), vehicle: Klucel (hydroxypropylcellulose) (HPC)
[10] = dose: 200.0 mg/kg/injection, schedule: Q04DX003 (ip), vehicle: Klucel (hydroxypropylcellulose) (HPC)
[11] = dose: 400.0 mg/kg/injection, schedule: Q04DX003 (ip), vehicle: Klucel (hydroxypropylcellulose) (HPC)
[12] = dose: 25.0 mg/kg/injection, schedule: Q01DX009 (ip), vehicle: saline
[13] = dose: 50.0 mg/kg/injection, schedule: Q01DX009 (ip), vehicle: saline
[14] = dose: 50.0 mg/kg/injection, schedule: Q04DX003 (ip), vehicle: saline
[15] = dose: 100.0 mg/kg/injection, schedule: Q01DX009 (ip), vehicle: Klucel (hydroxypropylcellulose) (HPC)
[16] = dose: 200.0 mg/kg/injection, schedule: Q01DX009 (ip), vehicle: Klucel (hydroxypropylcellulose) (HPC)
[17] = dose: 400.0 mg/kg/injection, schedule: Q01DX009 (ip), vehicle: Klucel (hydroxypropylcellulose) (HPC)
[18] = dose: 100.0 mg/kg/injection, schedule: Q01DX009 (ip), vehicle: saline with Tween-80
[19] = dose: 200.0 mg/kg/injection, schedule: Q01DX009 (ip), vehicle: saline with Tween-80
[20] = dose: 100.0 mg/kg/injection, schedule: Q01DX001 (ip), vehicle: carboxymethylcellulose (CMC)
[21] = dose: 200.0 mg/kg/injection, schedule: Q01DX001 (ip), vehicle: carboxymethylcellulose (CMC)
[22] = dose: 400.0 mg/kg/injection, schedule: Q01DX001 (ip), vehicle: carboxymethylcellulose (CMC)
[23] = dose: 200.0 mg/kg/injection, schedule: Q04DX003 (ip), vehicle: saline with Tween-80

Measured: T/C

Cc1cc(N(CCCOS(C)(=O)=O)CCCOS(C)(=O)=O)ccc1C=Nc1ccc2ccccc2c1
inactive: dose: 25.0 mg/kg/injection, schedule: Q04DX003 (ip), vehicle: saline with Tween-80 98 % of control | dose: 50.0 mg/kg/injection, schedule: Q04DX003 (ip), vehicle: saline with Tween-80 98 % of control | [1] 98 % of control | [2] 93 % of control

COc1ccc(OC)c2c(C)cc(Cl)nc12
inactive: [3] 104 % of control | [4] 98 % of control | [5] 110 % of control

c1ccc(-c2cncc(CNCc3cncc(-c4ccccc4)c3)c2)cc1
inactive: dose: 100.0 mg/kg/injection, schedule: Q01DX001 (ip), vehicle: Klucel (hydroxypropylcellulose) (HPC) 102 % of control | dose: 200.0 mg/kg/injection, schedule: Q01DX001 (ip), vehicle: Klucel (hydroxypropylcellulose) (HPC) 95 % of control | dose: 400.0 mg/kg/injection, schedule: Q01DX001 (ip), vehicle: Klucel (hydroxypropylcellulose) (HPC) 110 % of control

CCC/C=N/Nc1ccnc(SC)n1
inactive: dose: 100.0 mg/kg/injection, schedule: Q01DX009 (ip), vehicle: gum acacia 97 % of control

COc1cccc(/C=N/Nc2nnc(N/N=C/c3cccc(OC)c3OC)c3ccccc23)c1OC
inactive: dose: 50.0 mg/kg/injection, schedule: Q01DX001 (ip), vehicle: saline 92 % of control | [3] 92 % of control | [4] 92 % of control | [5] 94 % of control

O=C(Nc1ccc(CCO)cc1)Nc1cc([N+](=O)[O-])ccc1Cl
inactive: [6] 102 % of control | [7] 104 % of control | [8] 91 % of control

Cn1c(=O)[nH]cc(C(=O)O)c1=O
inactive: [9] 91 % of control | [10] 92 % of control | [11] 91 % of control

CCN(CC)CCC(=O)c1cccc2c1OC(C)(C)C2
inactive: dose: 12.5 mg/kg/injection, schedule: Q01DX009 (ip), vehicle: saline 100 % of control and 105 % of control | dose: 12.5 mg/kg/injection, schedule: Q04DX003 (ip), vehicle: saline 103 % of control | [12] 93 % of control and 100 % of control | dose: 25.0 mg/kg/injection, schedule: Q04DX003 (ip), vehicle: saline 97 % of control | [13] 93 % of control and 102 % of control | [14] 103 % of control

Cc1cc(C)c(S(=O)(=O)O)c(Cc2cccc3ccccc23)c1
inactive: [12] 94 % of control | [13] 102 % of control | [14] 94 % of control | [3] 93 % of control | dose: 100.0 mg/kg/injection, schedule: Q01DX009 (ip), vehicle: saline 96 % of control | dose: 100.0 mg/kg/injection, schedule: Q04DX003 (ip), vehicle: saline 98 % of control | [4] 88 % of control

CCCCCCCCC(C)NCCO (stereo not given)
inactive: dose: 9.5 mg/kg/injection, schedule: Q01DX001 (ip), vehicle: saline 96 % of control | dose: 19.0 mg/kg/injection, schedule: Q01DX001 (ip), vehicle: saline 93 % of control | dose: 38.0 mg/kg/injection, schedule: Q01DX001 (ip), vehicle: saline 90 % of control

CCCCCCCNC(=S)NNC(=O)c1ccncc1
inactive: [15] 97 % of control | [16] 100 % of control | [17] 100 % of control

CC[n+]1ccc(/C=C\c2c(Cl)cccc2Cl)cc1
inactive: [6] 100 % of control | [7] 100 % of control | [9] 100 % of control | [10] 100 % of control | [11] 112 % of control

CCN(CC)CCOc1ccc(-c2nc3cc(Cl)ccc3s2)cc1
inactive: dose: 15.0 mg/kg/injection, schedule: Q01DX015 (ip), vehicle: saline 95 % of control | dose: 30.0 mg/kg/injection, schedule: Q01DX015 (ip), vehicle: saline 94 % of control | dose: 60.0 mg/kg/injection, schedule: Q01DX015 (ip), vehicle: saline 94 % of control | dose: 120.0 mg/kg/injection, schedule: Q01DX015 (ip), vehicle: saline 91 % of control

CC(=O)NCCCCC(=O)c1ccccc1
inactive: [18] 102 % of control | [19] 100 % of control

Cc1cc(NS(=O)(=O)c2ccccc2)c2c(c1NS(=O)(=O)c1ccccc1)CC=CC2
inactive: [15] 103 % of control | [9] 103 % of control | [16] 100 % of control | [10] 95 % of control | [17] 111 % of control | [11] 94 % of control

COC(=O)c1cc(C(=O)OC(C)(C)C)c(-c2ccc(OC)c(OC)c2)c2cc(OC)c(OC)cc12
inactive: [3] 100 % of control | [4] 101 % of control | [5] 103 % of control

CC(CC(C#N)(c1ccccc1)c1ccccc1)OS(C)(=O)=O (stereo not given)
inactive: [20] 94 % of control | [21] 94 % of control | [22] 94 % of control

Cc1ccc(CN=C=S)cc1
inactive: dose: 6.25 mg/kg/injection, schedule: Q01DX009 (ip), vehicle: saline with Tween-80 103 % of control | dose: 12.5 mg/kg/injection, schedule: Q01DX009 (ip), vehicle: saline with Tween-80 98 % of control | dose: 25.0 mg/kg/injection, schedule: Q01DX009 (ip), vehicle: saline with Tween-80 97 % of control

O=C(Nc1ccc(Cl)c(Cl)c1)Nc1ccccc1O
inactive: [9] 100 % of control | [10] 102 % of control | [11] 100 % of control

C=C1CC(Cc2ccccc2)OC1=O (stereo not given)
inactive: dose: 100.0 mg/kg/injection, schedule: Q01DX001 (ip), vehicle: saline with Tween-80 94 % of control

CC(C)C(CCN1CCCC1)(C(N)=O)c1cccc2ccccc12 (stereo not given)
inactive: [8] 112 % of control | [15] 105 % of control | [9] 98 % of control | [16] 112 % of control | [10] 95 % of control

c1ccc2c(c1)ccc1c3c(oc12)CCCC3
inactive: [3] 116 % of control | [4] 103 % of control | [5] 105 % of control

Cc1noc2nc(Cl)cnc12
inactive: [18] 109 % of control | [1] 94 % of control | [19] 110 % of control | [23] 102 % of control | dose: 400.0 mg/kg/injection, schedule: Q01DX009 (ip), vehicle: saline with Tween-80 104 % of control | [2] 94 % of control

CN(C)c1ccc(Cc2ccc(N(C)C)cc2[N+](=O)[O-])cc1
inactive: [15] 102 % of control | [9] 96 % of control | [16] 93 % of control | [10] 96 % of control | [17] 95 % of control | [11] 101 % of control

C/C(CC(C)C)=N\NC(=O)Nc1ccccc1Cl
inactive: dose: 100.0 mg/kg/injection, schedule: Q01DX009 (ip), vehicle: other 102 % of control | dose: 200.0 mg/kg/injection, schedule: Q01DX009 (ip), vehicle: other 89 % of control | dose: 400.0 mg/kg/injection, schedule: Q01DX009 (ip), vehicle: other 102 % of control

O=C(O)C1(O)C(Cl)(Cl)C(Cl)=C(Cl)C1(Cl)Cl
inactive: dose: 50.0 mg/kg/injection, schedule: Q01DX009 (ip), vehicle: saline sonified 103 % of control | dose: 50.0 mg/kg/injection, schedule: Q04DX003 (ip), vehicle: Klucel (hydroxypropylcellulose) (HPC) 92 % of control | dose: 100.0 mg/kg/injection, schedule: Q01DX009 (ip), vehicle: saline sonified 105 % of control | [9] 97 % of control and 100 % of control | [10] 111 % of control

CCOP(=O)(NCCc1ccccc1)OCC
inactive: dose: 50.0 mg/kg/injection, schedule: Q01DX001 (ip), vehicle: carboxymethylcellulose (CMC) 109 % of control | [20] 109 % of control | [21] 101 % of control

Cc1c(F)c(I)c(Br)c(C)c1[N+](=O)[O-]
inactive: dose: 75.0 mg/kg/injection, schedule: Q04DX003 (ip), vehicle: Klucel (hydroxypropylcellulose) (HPC) 104 % of control | dose: 150.0 mg/kg/injection, schedule: Q04DX003 (ip), vehicle: Klucel (hydroxypropylcellulose) (HPC) 88 % of control | dose: 300.0 mg/kg/injection, schedule: Q04DX003 (ip), vehicle: Klucel (hydroxypropylcellulose) (HPC) 93 % of control

O=S(=O)(/N=C1C=C/C(=N\S(=O)(=O)c2ccccc2)c2ccccc2\1)c1ccccc1
inactive: [1] 88 % of control | [23] 90 % of control | [2] 93 % of control

Nc1cc2c(cc1Cl)-c1ccc([N+](=O)[O-])cc1/C2=N\O
inactive: [20] 104 % of control | [21] 116 % of control | [22] 104 % of control
